From patent US8318771B2, “Method of treatment of nephrogenic diabetes insipidus” (Universita' Degli Studi di Bari, priority 2010, dated 2012)

Experiments:
MCD4 cells [1] = assay: Surface protein biotinylation of apical membrane AQP2 in MCD4 cells (densitometric analysis, FIG. 1); type: cell-based; settings: control set to 100%
Description: (§1) In MCD4 cells in the absence of lovastatin in the culture medium (-Lovastatin) and in control (ctr) conditions, the AQP2 is stored in intracellular vesicles. […] The FK mimes the effect of the vasopressin in in vitro experiments. The same phenomenon occurs in the tubule in vivo following release into the circulation of vasopressin. […] The lovastatin therefore mimes the effect of the FK or the stimulation with vasopressin. […] It is possible to quantize the effect of the treatment with lovastatin in terms of accumulation of AQP2 on the apical membrane by means of surface protein biotinylation experiments.
In the absence of lovastatin, only a modest amount of AQP2 is expressed on the apical membrane of the MCD4 cells, and therefore biotinylated, in control cells. The treatment with FK determines an increase of approximately 3 times in the amount of AQP2 expressed on the apical membrane.

MCD4 cells [2] = assay: AQP2 localisation on the apical membrane of MCD4 renal cells in culture; type: cell-based
Protocol: The MCD4 cells, which are in culture and derive from main cells of the renal collecting duct, were treated experimentally with lovastatin. In the cell model, as in the renal tubule in vivo, the presence of AQP2 on the membrane depends on the presence of vasopressin.
as §1
In vitro tests performed in MCD4 renal cells indicate that the minimum treatment time with statins able to produce an evident shift of the AQP2 in the cells is 6 hours.

## C=C[C@@]1(C)CC(=O)[C@]2(O)[C@@]3(C)[C@@H](O)CCC(C)(C)[C@@H]3[C@H](O)[C@H](OC(C)=O)[C@@]2(C)O1 [forskolin]
MCD4 cells [1]; treatment with FK
  increase in the amount of AQP2 expressed on the apical membrane (biotinylated): approximately 3 times

## CC[C@H](C)C(=O)O[C@H]1C[C@@H](C)C=C2C=C[C@H](C)[C@H](CC[C@@H]3C[C@@H](O)CC(=O)O3)[C@H]21 [lovastatin]
MCD4 cells [2]; MCD4 cells, lovastatin in the medium plus treatment with FK
  increase in the AQP2 on the apical membrane: even more evident
MCD4 cells [2]; MCD4 control (ctr) cells, 5 μM lovastatin in the culture medium for 72 h
  AQP2 accumulation on the apical membrane: accumulate a considerable amount of AQP2 on the apical membrane
MCD4 cells [1]; 72 h with lovastatin alone
  increase of AQP2 present on the apical membrane (biotinylated): comparable to the one obtained by the FK

## CC(C)c1nc(N(C)S(C)(=O)=O)nc(-c2ccc(F)cc2)c1/C=C/[C@@H](O)C[C@@H](O)CC(=O)O [rosuvastatin]
MCD4 cells [2]; MCD4 cells, hydrosoluble formulation
  effect produced by the lovastatin (AQP2 accumulation on the apical membrane) induced by other statins: induced also
